Data set [1] in a line: General cytotoxicity against THP1 cells. The class given is cell-based, human. As to conditions: human, THP1 cells.
The subject of data set [2] is L. donovani axenic amastigotes. Nature of the data set: In vitro antileishmanial assay, L. donovani axenic amastigotes (Alamar Blue). The class given is cell-based, Leishmania donovani. How it is done: (§1) IC50 and IC90 values were computed from the dose–response curves using XLfit software. DFMO (difluoromethylornithine) was used as the positive control. The antiprotozoal activities of the H. afrum fractions and isolated compounds were evaluated in vitro against L. donovani promastigotes, axenic amastigotes and intracellular amastigotes in THP1 cells. The fractions and some isolated compounds were also evaluated against T. brucei trypomastigote forms.
On the technique in general: The colour change of resazurin is a common sign of viable cells or microbes.

Data set [3] deals with L. donovani promastigotes. Nature of the data set: In vitro antileishmanial assay, L. donovani promastigotes (Alamar Blue). The data set is classed as cell-based, Leishmania donovani. The conditions noted are these: for IC50: read-out: L. Donovani Promastigote IC50; for IC90: read-out: L. Donovani Promastigote IC90. How it is done: as §1
The test system of data set [4] is L. donovani intracellular amastigotes in THP1 cells. Nature of the data set: In vitro antileishmanial assay, intracellular amastigotes in THP1 cells (parasite rescue and transformation assay). The class given is cell-based, Leishmania donovani. Here is the method: as §1
Data set [5] deals with Trypanosoma brucei trypomastigotes. The data set can be described thus: In vitro antitrypanosomal assay, T. brucei trypomastigotes (Alamar Blue). The data set is classed as cell-based. How it is done:
as §1

A further data set relates to TbHK1. More on the design: method as in PMID 20971104. As to conditions: read-out: TbHK1 inhibition IC50; cited from earlier work.
The test system of a further data set is THP1 cells. Nature of the data set: General cytotoxicity against THP1 cells. The data set is classed as cell-based, human. As to conditions: Table 1.
[6] abbreviates: Leishmania donovani, Table 1, read-out: L. Donovani Amastigote IC50.
The mark [7] stands for this setting: Leishmania donovani, Table 1, read-out: L. Donovani Amastigote IC90.
Where [8] appears, read: Leishmania donovani, isolated compounds, Table 1, tested range 0.4–10 ug/mL.
Setting [9] is: Leishmania donovani, THP-1, Table 1, read-out: L. Donovani Amastigote/THP1 IC50.
Setting [10] is: Leishmania donovani, THP-1, Table 1, read-out: L. Donovani Amastigote/THP1 IC90.
Setting [11] is: Trypanosoma brucei, isolated compounds.
The mark [12] stands for this setting: Leishmania donovani, Table 2, read-out: L. Donovani Amastigote IC50.
Setting [13] is: Leishmania donovani, Table 2, read-out: L. Donovani Amastigote IC90.
Setting [14] is: Leishmania donovani, fractions, Table 2.
Where [15] appears, read: Leishmania donovani, THP-1, Table 2, read-out: L. Donovani Amastigote/THP IC50.
Where [16] appears, read: Leishmania donovani, THP-1, Table 2, read-out: L. Donovani Amastigote/THP IC90.
Setting [17] is: isolated compounds, Table 1, tested range 0.4–10 ug/mL.

Where two headings read alike, the source gives them in different places.

Regarding `O=c1c(O[C@@H]2O[C@H](CO)[C@H](O)[C@H](O)[C@H]2O)c(-c2ccc(O)c(O)c2)oc2cc(O)cc(O)c12` [Compound 5, hyperoside], the IC50 in data set [1] (Table 1), in data set [2] (setting [6]), in data set [3] (setting [8]), in data set [4] (setting [9]) and in data set [5] (setting [11]) was over 10 µM in each case. Besides, the IC90 in data set [1] (Table 1), in data set [2] (setting [7]), in data set [3] (setting [8]), in data set [4] (setting [10]) and in data set [5] (setting [11]) was over 10 µM in each case.
Take `O=c1c(O)c(-c2cc(O)c(O)c(O)c2)oc2cc(O)cc(O)c12` [Compound 4, myricetin]: the IC50 in the data set with TbHK1 was 48.9 µM; in data set [1] (Table 1) it was over 10 µM; in data set [2] (setting [6]), over 10 µM; in data set [3] (setting [8]), over 10 µM; in data set [4] (setting [9]), over 10 µM; in data set [5] (setting [11]) it was 5.71 µM. Also, the IC90 in data set [1] (Table 1) was over 10 µM; in data set [2] (setting [7]), over 10 µM; in data set [3] (setting [8]), over 10 µM; in data set [4] (setting [10]), over 10 µM; in data set [5] (setting [11]), 7.97 µM.
Turning to `O=c1c(O)c(-c2ccc(O)c(O)c2)oc2cc(O)cc(O)c12` [Compound 1, quercetin], the IC50 is 4.1 µM in the data set with TbHK1; over 10 µM in data set [1] (Table 1); over 10 µM in data set [2] (setting [6]); over 10 µM in data set [3] (setting [8]); over 10 µM in data set [4] (setting [9]); 7.52 µM in data set [5] (setting [11]). Besides, the IC90 is over 10 µM in data set [1] (Table 1); over 10 µM in data set [2] (setting [7]); over 10 µM in data set [3] (setting [8]); over 10 µM in data set [4] (setting [10]); 9.76 µM in data set [5] (setting [11]).
Regarding `NCCC[C@](N)(C(=O)O)C(F)F` [DFMO, α-difluoromethylornithine, reference compound], in data set [5] (fractions), the “T. Brucei IC50” value worked out at 3.634 µg/mL and the “T. Brucei IC90” value was found to be 8.804 µg/mL. In data set [5] (isolated compounds), the IC50 was found to be 3.63 µM and the IC90 is 8.8 µM.
As for `N=C(N)c1ccc(OCCCCCOc2ccc(C(=N)N)cc2)cc1` [PENT, Pentamidine, reference compound], the IC50 was over 10 µM in data set [1] (Table 1); over 10 µg/mL in data set [1] (Table 2); 9.58 µg/mL in data set [2] (setting [12]); 1.48 µg/mL in data set [3] (setting [14]); 1.16 µg/mL in data set [4] (setting [15]); 0.001 µg/mL in data set [5] (Trypanosoma brucei, fractions). Further, the IC50 in data set [5] (setting [11]) came out at 0.001 µM. The IC90 was over 10 µM in data set [1] (Table 1); over 10 µg/mL in data set [1] (Table 2); over 10 µM in data set [2] (setting [7]); over 10 µg/mL in data set [2] (setting [13]); 2.38 µg/mL in data set [3] (setting [14]); 5.59 µg/mL in data set [4] (setting [16]). Also, the IC90 was found to be 0.002 µg/mL in data set [5] (Trypanosoma brucei, fractions) and 0.002 µM in data set [5] (setting [11]).
On to myricitrin [Compound 2], for which the IC50 in the data set with THP1 cells is over 10 µM; in data set [2] (Table 1, read-out: L. Donovani Amastigote IC50), over 10 µM; in data set [3] (setting [17]) it was over 10 µM; in data set [4] (Table 1, read-out: L. Donovani Amastigote/THP1 IC50) it was over 10 µM; in data set [5] (isolated compounds), over 10 µM. The IC90 in the data set with THP1 cells is over 10 µM; in data set [2] (Table 1, read-out: L. Donovani Amastigote IC90), over 10 µM; in data set [3] (setting [17]), over 10 µM; in data set [4] (Table 1, read-out: L. Donovani Amastigote/THP1 IC90), over 10 µM; in data set [5] (isolated compounds), over 10 µM.
As for `O=c1c(OC2OC(CO)C(O)C(O)C2O)c(-c2cc(O)c(O)c(O)c2)oc2cc(O)cc(O)c12` [Compound 6, myricetin-3-O-β-D-galactopyranoside], the IC50 in data set [1] (Table 1), in data set [2] (setting [6]), in data set [3] (setting [8]), in data set [4] (setting [9]) and in data set [5] (setting [11]) was over 10 µM each time. Besides, the IC90 in data set [1] (Table 1), in data set [2] (setting [7]), in data set [3] (setting [8]), in data set [4] (setting [10]) and in data set [5] (setting [11]) was over 10 µM each time.
Consider `O=c1c(O)c(-c2cc(O)c(O)c(OC3OC(CO)C(O)C(O)C3O)c2)oc2cc(O)cc(O)c12` [Compound 7, myricetin-3’-O-β-D-glucopyranoside], for which the IC50 in data set [1] (Table 1), in data set [2] (setting [6]), in data set [3] (setting [8]), in data set [4] (setting [9]) and in data set [5] (setting [11]) was over 10 µM each time. Besides, the IC90 in data set [1] (Table 1), in data set [2] (setting [7]), in data set [3] (setting [8]), in data set [4] (setting [10]) and in data set [5] (setting [11]) was over 10 µM each time.
As for `C[C@@H]1[C@H](O)[C@@H](C)/C=C/C=C/C=C/C=C/C=C/C=C/C=C/[C@H](O[C@@H]2O[C@H](C)[C@@H](O)[C@H](N)[C@@H]2O)C[C@@H]2O[C@](O)(C[C@@H](O)C[C@@H](O)[C@H](O)CC[C@@H](O)C[C@@H](O)CC(=O)O[C@H]1C)C[C@H](O)[C@H]2C(=O)O` [AMB, Amphotericin, reference compound], the IC50 in data set [1] (Table 1) is over 2 µM; in data set [1] (Table 2) it was over 2 µg/mL; in data set [2] (setting [12]), 0.304 µg/mL; in data set [3] (setting [14]) it was 0.138 µg/mL; in data set [4] (setting [15]), 0.187 µg/mL. In addition, the IC90 was over 2 µM in data set [1] (Table 1); over 2 µg/mL in data set [1] (Table 2); 0.362 µg/mL in data set [2] (setting [13]); 0.188 µg/mL in data set [3] (setting [14]); 0.264 µg/mL in data set [4] (setting [16]).
Consider `O=c1c(-c2c(O)cc(O)c3c(=O)cc(-c4ccc(O)cc4)oc23)c(-c2ccc(O)cc2)oc2cc(O)cc(O)c12` [Compound 3, biapigenin], for which the IC50 in data set [1] (Table 1), in data set [2] (setting [6]), in data set [3] (setting [8]), in data set [4] (setting [9]) and in data set [5] (setting [11]) was over 10 µM each time. The IC90 in data set [1] (Table 1), in data set [2] (setting [7]), in data set [3] (setting [8]), in data set [4] (setting [10]) and in data set [5] (setting [11]) was over 10 µM throughout.

These data come from paper PMC7918497, “Proposed Mechanism for the Antitrypanosomal Activity of Quercetin and Myricetin Isolated from Hypericum afrum Lam.: Phytochemistry, In Vitro Testing and Modeling Studies” (Molecules, 2021).
